PMC8957602 (Cancer chemotherapy and pharmacology, 2022)
“And” between values parts separate entries of the source, which are not always exact repeats. Identical values can stand only once. Like-named read-outs stand apart in the source and are kept apart here.

Legend:
[1] = assay type: in vivo, human; settings: despite increased exposure with acid reducer co-treatment
[2] = ref [11], cited from earlier work
[3] = adults with FLT3 mutant AML, ref [26], cited from earlier work
[4] = described as weak acid drug; cited from earlier work
[5] = system: human cytochrome CYP3A enzyme family; settings: in vitro; ref unpublished in vitro data; cited from earlier work
[6] = ref [18], cited from earlier work
[7] = for AUC(0-t) / clearance: human, serum, oral; for AUC(0-t): 170 mg/m2, Steady state AUC0–24h, after 170 mg/m^2; for clearance: Mean clearance
[8] = system: CYP3A4; settings: ref [31]; cited from earlier work
[9] = before including any covariates
[10] = before inclusion of significant covariates
[11] = final model with covariates, Estimate (RSE%)
[12] = final model, standard deviation, Estimate (RSE%)
[13] = standard deviation, 500 bootstrap replicates

## CC1(COc2ccc3c(c2)ncn3-c2ccc3cccc(N4CCC(N)CC4)c3n2)COC1 [crenolanib]
[1]
  Tolerability of therapy: well-tolerated
[2]; adults with solid tumors, 100–340 mg once daily, similar across all dose levels, [15]
  Terminal half-life: 14 ± 4.2 h
[2]; adults, 280 mg once daily (approx. 168 mg/m^2)
  Mean (CV%) steady state AUC0–72h: 25,928 (92%) h·nM
[2]; adults, 100–340 mg once daily, [15]
  Tolerability: well tolerated
[3]; similar between day 1 and day 15
  Mean clearance: ~ 60 L/h
[3]
  Drug accumulation after repeated doses: minimal drug accumulation
  Terminal half-life: 6.8 h
[4]
  pKa: ~ 9.8
[5]
  Metabolizing enzyme: primarily metabolized by human cytochrome CYP3A enzyme family
[6]; oral once daily
  Maximum tolerated dosage: 170 mg/m^2/d
[6]
  Association of higher AUC with toxicities: not associated with more frequent or severe toxicities
[7]; 500 bootstrap replicates
  AR coefficient on V1/F βAR-V, non-parametric bootstraps mean: −0.477
  Absorption lag time Tlag, non-parametric bootstraps mean: 0.547 h
  Absorption rate constant ka, non-parametric bootstraps mean: 0.192 h⁻¹
  Age coefficient on ka βAge, non-parametric bootstraps mean: −0.0403
  Central clearance CL/F, non-parametric bootstraps mean: 42.0 L/h
  Central volume V1/F, non-parametric bootstraps mean: 54.0 L
  Peripheral volume V2/F, non-parametric bootstraps mean: 194 L
  Residual proportional error, non-parametric bootstraps mean: 0.306
[7]; [9]
  CL/F population estimate: 20.4 L/h
  Q/F population estimate: 4.47 L/h
  Tlag population estimate: 0.59 h
  V1/F population estimate: 34.6 L
  V2/F population estimate: 316 L
  ka population estimate: 0.13 h⁻¹
[7]; [10]
  Inter-occasion variability of CL/F: 0.568
  Inter-occasion variability of V1/F: 0.956
[7]; [11]
  Absorption lag time Tlag, population estimate: 0.525 (14.4) h
  Absorption rate constant ka, population estimate: 0.191 (10.4) /h
[7]; final model, Estimate (RSE%)
  Peripheral volume V2/F, population estimate: 412 (86.7) L
  Residual proportional error: 0.304 (4.44)
[7]; final model, acid reducer concomitant treatment, Estimate (RSE%)
  AR coefficient on V1/F βAR-V: −0.516 (42.3)
[7]; final model, exponential model, Estimate (RSE%)
  Age coefficient on ka βAge: −0.0404 (20.5)
[7]; [12]
  Inter-occasion variability (IOV) of absorption lag time Tlag: 0.645 (18.3)
  Inter-patient variability (IIV) of absorption lag time Tlag: 0.524 (27.7)
  Inter-patient variability (IIV) of peripheral clearance Q/F: 0.536 (20.2)
[7]; final model, typical patient, no acid reducer, Estimate (RSE%)
  Central volume V1/F, population estimate: 54.3 L and 54.3 (18.4) L
[7]; histamine H2 antagonists or proton pump inhibitors, p=0.018
  Lower V1/F in patients receiving concomitant acid reducers: ~1.7 fold
[7]; mean
  AUC(0-t): 20.7 µM·h
[7]; range
  AUC(0-t): 9.48 to 68.5 µM·h
[7]; all patients
  clearance: 642 mL/min
[7]; with acid reducers
  clearance: 435 mL/min
[7]; without acid reducers
  clearance: 980 mL/min
[7]; in vivo
  Accumulation at steady state: minimal accumulation
[7]; [13]
  IIV of absorption lag time Tlag, non-parametric bootstraps mean: 0.496
  IIV of absorption rate constant ka, non-parametric bootstraps mean: 0.091
  IIV of central volume V1/F, non-parametric bootstraps mean: 0.182
  IOV of absorption lag time Tlag, non-parametric bootstraps mean: 0.591
  IOV of central volume V1/F, non-parametric bootstraps mean: 0.860

## COc1ccc2[nH]c([S+]([O-])Cc3ncc(C)c(OC)c3C)nc2c1 (stereo not shown) [omeprazole]
[8]
  CYP3A4 inhibition: weak CYP3A4 inhibitors

## COc1ccnc(C[S+]([O-])c2nc3ccc(OC(F)F)cc3[nH]2)c1OC (stereo not shown) [pantoprazole]
[8]
  CYP3A4 inhibition: weak CYP3A4 inhibitors

## CNC(=C[N+](=O)[O-])NCCSCc1ccc(CN(C)C)o1 [ranitidine]
[8]
  CYP3A4 inhibition: weak CYP3A4 inhibitors
